Results: patent US10280145B2 (Toray Industries, Inc., priority 2015, dated 2019)

Biological target: T1, intracellular domain of DDR1 (Homo sapiens, UniProt Q08345)
T1 construct: the intracellular domain of DDR1 (in a final concentration of 5 ng/μL) (Carna Biosciences, Inc.); purchased Carna Biosciences, Inc
Assay: Evaluation of DDR1 inhibition activity with HTRF KinEASE-TK kit
Format: biochemical
Conditions: DDR1 intracellular domain 5 ng/μL, ATP 25 μm/L, TK Substrate-biotin 1000 nmol/L, room temperature, one hour
Description: The DDR1 inhibition activity in the compounds of Examples 1 to 80 was evaluated with HTRF® KinEASE-TK kit (Cisbio Bioassays).
Each test substance was dissolved in dimethyl sulfoxide and then used for the evaluation as described below. Moreover, each of test substances and reagents was diluted in the kinase buffer (Cisbio Bioassays) prepared by adding thereto MgCl2, MnCl2, DTT, and the Supplemental Enzyme buffer (Cisbio Bioassays) to concentrations of 5 mmol/L, 0.5 mmol/L, 0.25 mmol/L, and 50 nmol/L, respectively, and then used. Each test substance (in DMSO in a final concentration of 1%), the intracellular domain of DDR1 (in a final concentration of 5 ng/μL) (Carna Biosciences, Inc.), the phosphate donor ATP (in final concentration of 25 μm/L) (Sigma), and the substrate TK Substrate-biotin (in a final concentration of 1000 nmol/L) (Cisbio Bioassays) were added to a 384-well black plate (Corning) and allowed to react at room temperature for one hour. After completion of the reaction, the TK Antibody-Cryptate (Cisbio Bioassays) and the Streptavidin-XL665 (Cisbio Bioassays) were added thereto and allowed to react at room temperature for one hour. In addition, the plate was provided with a well to which a test substance was not added, and with a well to which a test substance and the intracellular domain of DDR1 were […].
The fluorescence intensity in each well was measured using a multi-label counter (Envision, PerkinElmer; excitation wavelength: 320 nm, measurement wavelength: 665 nm and 620 nm) to calculate a ratio (the fluorescence intensity at 665 nm/the fluorescence intensity at 620 nm). The inhibition rate (%) of a test substance at each concentration was calculated based on the formula below: Inhibition rate (%)=([the ratio obtained from the well containing no test substance]−[the ratio from a well containing a test substance])/([the ratio obtained from the well containing no test substance]−[the ratio obtained from the well containing no intracellular domain of DDR1 and no test substance])×100.
The calculated inhibition rates were fitted to a sigmoidal dose-response curve by regression analysis using the Prism 5.04 (GraphPad Software, Inc.) to calculate the IC50 value of the test substance.

T1 sequence (Q08345 439-913 limits assumed): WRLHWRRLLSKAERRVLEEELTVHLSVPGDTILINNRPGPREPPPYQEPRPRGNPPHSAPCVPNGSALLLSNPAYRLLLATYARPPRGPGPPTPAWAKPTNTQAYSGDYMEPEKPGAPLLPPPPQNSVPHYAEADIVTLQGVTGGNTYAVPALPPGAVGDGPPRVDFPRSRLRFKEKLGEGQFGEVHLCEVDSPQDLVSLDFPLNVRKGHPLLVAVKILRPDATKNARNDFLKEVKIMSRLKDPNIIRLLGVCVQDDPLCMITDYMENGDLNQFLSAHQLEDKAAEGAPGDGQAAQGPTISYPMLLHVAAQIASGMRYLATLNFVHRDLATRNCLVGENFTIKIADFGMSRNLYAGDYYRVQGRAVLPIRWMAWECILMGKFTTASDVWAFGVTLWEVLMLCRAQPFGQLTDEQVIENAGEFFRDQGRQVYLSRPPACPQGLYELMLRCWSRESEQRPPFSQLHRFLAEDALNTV

Row | Structure (SMILES) | IC50
1 | O=C(Nc1cc(C(F)(F)F)ccc1OC1CCNCC1)N[C@H]1CC[C@H](OCc2ccncc2)CC1 [Example 32, 1-(2-(piperidin-4-yloxy)-5-(trifluoromethyl)phenyl)-3-(trans-4-(pyridin-4-ylmethoxy)cyclohexyl)urea] | 10 nM
2 | CC(=O)N1CC(Oc2ccc(C(F)(F)F)cc2NC(=O)N[C@H]2CC[C@H](OCc3ccncc3)CC2)C1 [Example 33, 1-(2-((1-acetylazetidin-3-yl)oxy)-5-(trifluoromethyl)phenyl)-3-(trans-4-(pyridin-4-ylmethoxy)cyclohexyl)urea] | 28 nM
3 | CC(=O)N1CCC(Oc2ccc(C(F)(F)F)cc2NC(=O)N[C@H]2CC[C@H](OCc3ccncc3)CC2)CC1 [Example 34, 1-(2-((1-acetylpiperidin-4-yl)oxy)-5-(trifluoromethyl)phenyl)-3-(trans-4-(pyridin-4-ylmethoxy)cyclohexyl)urea] | 51 nM
4 | O=C(Nc1cc(C(F)(F)F)ccc1O[C@@H]1CCNC1)N[C@H]1CC[C@H](OCc2ccncc2)CC1 [Example 35, 1-(trans-4-(pyridin-4-ylmethoxy)cyclohexyl)-3-(2-((R)-pyrrolidin-3-yloxy)-5-(trifluoromethyl)phenyl)urea] | 88.6 nM
5 | O=C(Nc1cc(C(F)(F)F)ccc1O[C@H]1CCNC1)N[C@H]1CC[C@H](OCc2ccncc2)CC1 [Example 36, 1-(trans-4-(pyridin-4-ylmethoxy)cyclohexyl)-3-(2-((S)-pyrrolidin-3-yloxy)-5-(trifluoromethyl)phenyl)urea] | 140 nM
6 | COc1ccc(C(F)(F)F)cc1NC(=O)N[C@H]1CC[C@H](Oc2ccnc(-c3cccnc3)n2)CC1 [Example 37, 1-(2-methoxy-5-(trifluoromethyl)phenyl)-3-(trans-4-((2-(pyridin-3-yl)pyrimidin-4-yl)oxy)cyclohexyl)urea] | 149 nM
7 | O=C(Nc1cc(C(F)(F)F)ccc1OC1COC1)N[C@H]1CC[C@H](Oc2ccnc(-c3cccnc3)n2)CC1 [Example 38, 1-(2-(oxetan-3-yloxy)-5-(trifluoromethyl)phenyl)-3-(trans-4-((2-(pyridin-3-yl)pyrimidin-4-yl)oxy)cyclohexyl)urea] | 61 nM
8 | COc1ccc(OC(F)(F)F)cc1NC(=O)N[C@H]1CC[C@H](Oc2ccnc(-c3cccnc3)n2)CC1 [Example 39, 1-(2-methoxy-5-(trifluoromethoxy)phenyl)-3-(trans-4-((2-(pyridin-3-yl)pyrimidin-4-yl)oxy)cyclohexyl)urea] | 236 nM
9 | COc1ccc(C(F)(F)F)cc1NC(=O)N[C@H]1CC[C@H](Oc2nccc(-c3cccnc3)n2)CC1 [Example 40, 1-(2-methoxy-5-(trifluoromethyl)phenyl)-3-(trans-4-((4-(pyridin-3-yl)pyrimidin-2-yl)oxy)cyclohexyl)urea] | 98 nM
10 | O=C(Nc1cc(C(F)(F)F)ccc1OC1COC1)N[C@H]1CC[C@H](Oc2nccc(-c3cccnc3)n2)CC1 [Example 41, 1-(2-(oxetan-3-yloxy)-5-(trifluoromethyl)phenyl)-3-(trans-4-((4-(pyridin-3-yl)pyrimidin-2-yl)oxy)cyclohexyl)urea] | 45.6 nM
11 | CNc1cc(O[C@H]2CC[C@H](NC(=O)Nc3cc(C(F)(F)F)ccc3OC3CNC3)CC2)ncn1 [Example 42] | 27.2 nM
12 | CNc1cc(O[C@H]2CC[C@H](NC(=O)Nc3cc(C(F)(F)F)ccc3OC3CCNCC3)CC2)ncn1 [Example 43] | 31.3 nM
13 | O=C(Nc1cc(OC(F)(F)F)ccc1OC1COC1)N[C@H]1CC[C@H](Oc2ccnc(N3CCOCC3)n2)CC1 [Example 44, 1-(trans-4-((2-morpholinopyrimidin-4-yl)oxy)cyclohexyl)-3-(2-(oxetan-3-yloxy)-5-(trifluoromethoxy)phenyl)urea] | 128 nM
14 | COc1c(CO)cc(C(F)(F)F)cc1NC(=O)N[C@H]1CC[C@H](Oc2ccnc(-c3cccnc3)n2)CC1 [Example 45, 1-(3-(hydroxymethyl)-2-methoxy-5-(trifluoromethyl)phenyl)-3-(trans-4-((2-(pyridin-3-yl)pyrimidin-4-yl)oxy)cyclohexyl)urea] | 33.8 nM
15 | CCOc1ccc(C(F)(F)F)cc1NC(=O)N[C@H]1CC[C@H](Oc2ccnc(N3CCOCC3)n2)CC1 [Example 46, 1-(2-ethoxy-5-(trifluoromethyl)phenyl)-3-(trans-4-((2-morpholinopyrimidin-4-yl)oxy)cyclohexyl)urea] | 531 nM
16 | O=C(Nc1cc(C(F)(F)F)ccc1OC1COC1)N[C@H]1CC[C@H](Oc2ccnc(-c3ccncc3)n2)CC1 [Example 47, 1-(2-(oxetan-3-yloxy)-5-(trifluoromethyl)phenyl)-3-(trans-4-((2-(pyridin-4-yl)pyrimidin-4-yl)oxy)cyclohexyl)urea] | 56.6 nM
17 | COc1c(CO)cc(OC(F)(F)F)cc1NC(=O)N[C@H]1CC[C@H](Oc2ccnc(N3CCOCC3)n2)CC1 [Example 50, 1-(3-(hydroxymethyl)-2-methoxy-5-(trifluoromethoxy)phenyl)-3-(trans-4-((2-morpholinopyrimidin-4-yl)oxy)cyclohexyl)urea] | 35.1 nM
18 | O=C(Nc1ccc(CO)c(C(F)(F)F)c1)N[C@H]1CC[C@H](Oc2ccnc(N3CCOCC3)n2)CC1 [Example 53, 1-(4-(hydroxymethyl)-3-(trifluoromethyl)phenyl)-3-(trans-4-((2-morpholinopyrimidin-4-yl)oxy)cyclohexyl)urea] | 254 nM
19 | CNc1ccnc(O[C@H]2CC[C@H](NC(=O)Nc3cc(OC(F)(F)F)ccc3OC)CC2)n1 [Example 54, 1-(2-methoxy-5-(trifluoromethoxy)phenyl)-3-(trans-4-((4-(methylamino)pyrimidin-2-yl)oxy)cyclohexyl)urea] | 95.1 nM
20 | O=C(Nc1cc(C(F)(F)F)ccc1OC1COC1)N[C@H]1CC[C@H](OCc2ccncc2)CC1 [Example 56, 1-(2-(oxetan-3-yloxy)-5-(trifluoromethyl)phenyl)-3-(trans-4-(pyridin-4-ylmethoxy)cyclohexyl)urea] | 55.8 nM
21 | O=C(Nc1cc(C(F)(F)F)ccc1N1CCOCC1)N[C@H]1CC[C@H](Oc2ncccn2)CC1 [Example 57, 1-(2-morpholino-5-(trifluoromethyl)phenyl)-3-(trans-4-(pyrimidin-2-yloxy)cyclohexyl)urea] | 653 nM
22 | O=C(Nc1cc(C(F)(F)F)ccc1Cl)N[C@H]1CC[C@H](Oc2ncccn2)CC1 [Example 58, 1-(2-chloro-5-(trifluoromethyl)phenyl)-3-(trans-4-(pyrimidin-2-yloxy)cyclohexyl)urea] | 528 nM
23 | COc1ccc(OC(F)(F)F)cc1NC(=O)N[C@H]1CC[C@H](Oc2cc(N3CCOCC3)ncn2)CC1 [Example 59, 1-(2-methoxy-5-(trifluoromethoxy)phenyl)-3-(trans-4-((6-morpholinopyrimidin-4-yl)oxy)cyclohexyl)urea] | 335 nM
24 | COc1c(CO)cc(C(F)(F)F)cc1NC(=O)N[C@H]1CC[C@H](Oc2ccnc(NCCO)n2)CC1 [Example 61, 1-(trans-4-((2-((2-hydroxyethyl)amino)pyrimidin-4-yl)oxy)cyclohexyl)-3-(3-(hydroxymethyl)-2-methoxy-5-(trifluoromethyl)phenyl)urea] | 57.9 nM
25 | COc1ccc(OC(F)(F)F)cc1NC(=O)N[C@H]1CC[C@H](Oc2ccnc(NCCO)n2)CC1 [Example 62, 1-(trans-4-((2-((2-hydroxyethyl)amino)pyrimidin-4-yl)oxy)cyclohexyl)-3-(2-methoxy-5-(trifluoromethoxy)phenyl)urea] | 138 nM
26 | O=C(Nc1cc(C(F)(F)F)ccc1OC1COC1)N[C@H]1CC[C@H](Oc2ccnc(NCCO)n2)CC1 [Example 63, 1-(trans-4-((2-((2-hydroxyethyl)amino)pyrimidin-4-yl)oxy)cyclohexyl)-3-(2-(oxetan-3-yloxy)-5-(trifluoromethyl)phenyl)urea] | 46.7 nM
27 | CNc1nccc(O[C@H]2CC[C@H](NC(=O)Nc3cc(C(F)(F)F)ccc3OC3COC3)CC2)n1 [Example 64, 1-(trans-4-((2-(methylamino)pyrimidin-4-yl)oxy)cyclohexyl)-3-(2-(oxetan-3-yloxy)-5-(trifluoromethyl)phenyl)urea] | 54.5 nM
28 | CNc1nccc(O[C@H]2CC[C@H](NC(=O)Nc3cc(C(F)(F)F)cc(CO)c3OC)CC2)n1 [Example 65, 1-(3-(hydroxymethyl)-2-methoxy-5-(trifluoromethyl)phenyl)-3-(trans-4-((2-(methylamino)pyrimidin-4-yl)oxy)cyclohexyl)urea] | 42.1 nM
29 | O=C(Nc1cc(C(F)(F)F)ccc1OC1COC1)N[C@H]1CC[C@H](Oc2ccncn2)CC1 [Example 66, 1-(2-(oxetan-3-yloxy)-5-(trifluoromethyl)phenyl)-3-(trans-4-(pyrimidin-4-yloxy)cyclohexyl)urea] | 98.4 nM
